The experiment deals with T1, FGFR3 G697C (Homo sapiens, UniProt P22607, G697C).
T1 construct: purchased Thermo Fisher Scientific (Life Technologies) SelectScreen
Description: SelectScreen LanthaScreen. It is filed as binding. The settings on record: read-out: % displacement. Put shortly:
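NU5455 was profiled across the SelectScreen Broad panel of kinase activity and binding assays. Z'LYTE reactions such as CSF1R ran at apparent Km ATP, while the Adapta CAMK1 assay used ATP listed as 10. Values are given as percent.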

T1 sequence (P22607 23-806 G697C): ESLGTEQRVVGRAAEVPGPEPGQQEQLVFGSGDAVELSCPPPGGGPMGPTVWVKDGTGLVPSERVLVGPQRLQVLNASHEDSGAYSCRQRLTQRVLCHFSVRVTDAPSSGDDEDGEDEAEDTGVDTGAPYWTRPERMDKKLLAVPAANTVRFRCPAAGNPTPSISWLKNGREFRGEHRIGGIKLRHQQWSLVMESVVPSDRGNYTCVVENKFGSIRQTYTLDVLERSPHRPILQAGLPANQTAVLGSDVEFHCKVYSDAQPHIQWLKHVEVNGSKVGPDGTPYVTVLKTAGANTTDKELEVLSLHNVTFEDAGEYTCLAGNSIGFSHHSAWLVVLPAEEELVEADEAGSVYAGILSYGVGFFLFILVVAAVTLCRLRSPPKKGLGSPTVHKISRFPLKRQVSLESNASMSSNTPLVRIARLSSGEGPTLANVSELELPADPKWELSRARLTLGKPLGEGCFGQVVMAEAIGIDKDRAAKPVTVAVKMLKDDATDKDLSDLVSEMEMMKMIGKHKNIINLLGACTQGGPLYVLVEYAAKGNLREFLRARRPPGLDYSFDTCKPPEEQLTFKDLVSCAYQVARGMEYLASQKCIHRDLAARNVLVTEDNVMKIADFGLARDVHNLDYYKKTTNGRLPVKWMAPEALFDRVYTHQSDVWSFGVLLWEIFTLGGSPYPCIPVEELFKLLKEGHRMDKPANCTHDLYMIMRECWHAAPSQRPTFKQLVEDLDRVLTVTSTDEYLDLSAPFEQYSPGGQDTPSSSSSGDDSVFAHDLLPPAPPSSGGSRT

With `CN(C(=O)CN1CCOCC1)c1ccc2sc3c(-c4cccc5c(=O)cc(N6CC7CCC(C6)O7)oc45)cccc3c2c1` [NU5455], the inhibition at 1 µM turned out to be 3.1%.

The values above are taken from paper PMC6934184, “Selective DNA-PKcs inhibition extends the therapeutic index of localized radiotherapy and chemotherapy” (The Journal of Clinical Investigation, 2019).
